Reference: PubChem BioAssay AID2060337 (Molecular Pharmacology Branch, DTP, NCI, 2025)
pIC50: −log10 of the molar value.

System: 832693-133-R-J1-PDC multi-cell spheroids, viability
Assay: Anticancer human tumor 832693-133-R-J1-PDC patient-derived head and neck squamous carcinoma cell line growth inhibition [IpAb]
Details: for pIC50: curve of first compound; for viability, T/C: stronger effect = lower value
Summary of the method: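 Spheroids of 60% malignant cells, 25% HUVEC and 15% MSC were exposed to targeted agents combined with ipatasertib or abemaciclib. Doses started at or near clinical Cmax (10 microM when unknown) and fell in half-log steps.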

[1] = second compound 0.01 µM, first compound 0.00949 µM
[2] = second compound 0.01 µM, first compound 0.03 µM
[3] = second compound 0.01 µM, first compound 0.0949 µM
[4] = second compound 0.01 µM, first compound 0.3 µM
[5] = second compound 0.0316 µM, first compound 0.00949 µM
[6] = second compound 0.0316 µM, first compound 0.03 µM
[7] = second compound 0.0316 µM, first compound 0.0949 µM
[8] = second compound 0.0316 µM, first compound 0.3 µM
[9] = second compound 0.1 µM, first compound 0.00949 µM
[10] = second compound 0.1 µM, first compound 0.03 µM
[11] = second compound 0.1 µM, first compound 0.0949 µM
[12] = second compound 0.1 µM, first compound 0.3 µM
[13] = second compound 0.316 µM, first compound 0.00949 µM
[14] = second compound 0.316 µM, first compound 0.03 µM
[15] = second compound 0.316 µM, first compound 0.0949 µM
[16] = second compound 0.316 µM, first compound 0.3 µM
[17] = second compound 1 µM, first compound 0.00949 µM
[18] = second compound 1 µM, first compound 0.03 µM
[19] = second compound 1 µM, first compound 0.0949 µM
[20] = second compound 1 µM, first compound 0.3 µM
[21] = second compound 0.01 µM, first compound 0.0316 µM
[22] = second compound 0.01 µM, first compound 0.1 µM
[23] = second compound 0.01 µM, first compound 0.316 µM
[24] = second compound 0.01 µM, first compound 1 µM
[25] = second compound 0.01 µM, first compound 3.16 µM
[26] = second compound 0.01 µM, first compound 10 µM
[27] = second compound 0.0316 µM, first compound 0.0316 µM
[28] = second compound 0.0316 µM, first compound 0.1 µM
[29] = second compound 0.0316 µM, first compound 0.316 µM
[30] = second compound 0.0316 µM, first compound 1 µM
[31] = second compound 0.0316 µM, first compound 3.16 µM
[32] = second compound 0.0316 µM, first compound 10 µM
[33] = second compound 0.1 µM, first compound 0.0316 µM
[34] = second compound 0.1 µM, first compound 0.1 µM
[35] = second compound 0.1 µM, first compound 0.316 µM
[36] = second compound 0.1 µM, first compound 1 µM
[37] = second compound 0.1 µM, first compound 3.16 µM
[38] = second compound 0.1 µM, first compound 10 µM
[39] = second compound 0.316 µM, first compound 0.0316 µM
[40] = second compound 0.316 µM, first compound 0.1 µM
[41] = second compound 0.316 µM, first compound 0.316 µM
[42] = second compound 0.316 µM, first compound 1 µM
[43] = second compound 0.316 µM, first compound 3.16 µM
[44] = second compound 0.316 µM, first compound 10 µM
[45] = second compound 1 µM, first compound 0.0316 µM
[46] = second compound 1 µM, first compound 0.1 µM
[47] = second compound 1 µM, first compound 0.316 µM
[48] = second compound 1 µM, first compound 1 µM
[49] = second compound 1 µM, first compound 3.16 µM
[50] = second compound 1 µM, first compound 10 µM
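Further: spheroids exposed to the drugs for one week before the viability readout.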
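Wherever viability, T/C is given: 100% = DMSO vehicle control wells.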

CC(=O)c1c(C)c2cnc(Nc3ccc(N4CCNCC4)cn3)nc2n(C2CCCC2)c1=O + CCN1CCN(Cc2ccc(Nc3ncc(F)c(-c4cc(F)c5nc(C)n(C(C)C)c5c4)n3)nc2)CC1
pIC50 (second compound 0.01 µM): < 6.52
pIC50 (second compound 0.0316 µM): < 6.52
pIC50 (second compound 0.1 µM): < 6.52
pIC50 (second compound 0.316 µM): < 6.52
pIC50 (second compound 1 µM): < 6.52
viability, T/C (second compound 0.01 µM, first compound 0.000949 µM): 101%
viability, T/C (second compound 0.01 µM, first compound 0.003 µM): 83.8%
viability, T/C [1]: 75.6%
viability, T/C [2]: 71.8%
viability, T/C [3]: 58.4%
viability, T/C [4]: 60%
viability, T/C (second compound 0.0316 µM, first compound 0.000949 µM): 80.1%
viability, T/C (second compound 0.0316 µM, first compound 0.003 µM): 83.4%
viability, T/C [5]: 71.1%
viability, T/C [6]: 58.4%
viability, T/C [7]: 56.7%
viability, T/C [8]: 54.1%
viability, T/C (second compound 0.1 µM, first compound 0.000949 µM): 57.1%
viability, T/C (second compound 0.1 µM, first compound 0.003 µM): 62.2%
viability, T/C [9]: 61.4%
viability, T/C [10]: 52.4%
viability, T/C [11]: 54.3%
viability, T/C [12]: 56%
viability, T/C (second compound 0.316 µM, first compound 0.000949 µM): 54%
viability, T/C (second compound 0.316 µM, first compound 0.003 µM): 53.3%
viability, T/C [13]: 55.3%
viability, T/C [14]: 61.4%
viability, T/C [15]: 55.2%
viability, T/C [16]: 60.4%
viability, T/C (second compound 1 µM, first compound 0.000949 µM): 67.8%
viability, T/C (second compound 1 µM, first compound 0.003 µM): 61%
viability, T/C [17]: 68.3%
viability, T/C [18]: 64.8%
viability, T/C [19]: 65.6%
viability, T/C [20]: 57.2%

CC(C)(C)c1cnc(CSc2cnc(NC(=O)C3CCNCC3)s2)o1 + CCN1CCN(Cc2ccc(Nc3ncc(F)c(-c4cc(F)c5nc(C)n(C(C)C)c5c4)n3)nc2)CC1
pIC50 (second compound 0.01 µM): 6.24
pIC50 (second compound 0.0316 µM): 6.65
pIC50 (second compound 0.1 µM): 6.79
pIC50 (second compound 0.316 µM): 6.83
pIC50 (second compound 1 µM): 6.87
viability, T/C [1]: 107%
viability, T/C [2]: 125%
viability, T/C [3]: 157%
viability, T/C [4]: 114%
viability, T/C (second compound 0.01 µM, first compound 0.949 µM): 0.93%
viability, T/C (second compound 0.01 µM, first compound 3 µM): 1.32%
viability, T/C [5]: 97.8%
viability, T/C [6]: 112%
viability, T/C [7]: 133%
viability, T/C [8]: 27.8%
viability, T/C (second compound 0.0316 µM, first compound 0.949 µM): 0.9%
viability, T/C (second compound 0.0316 µM, first compound 3 µM): 1.39%
viability, T/C [9]: 73.8%
viability, T/C [10]: 93.5%
viability, T/C [11]: 104%
viability, T/C [12]: 6.06%
viability, T/C (second compound 0.1 µM, first compound 0.949 µM): 0.75%
viability, T/C (second compound 0.1 µM, first compound 3 µM): 1.11%
viability, T/C [13]: 66.7%
viability, T/C [14]: 77.5%
viability, T/C [15]: 100%
viability, T/C [16]: 1.34%
viability, T/C (second compound 0.316 µM, first compound 0.949 µM): 1.19%
viability, T/C (second compound 0.316 µM, first compound 3 µM): 1.26%
viability, T/C [17]: 67.9%
viability, T/C [18]: 81.3%
viability, T/C [19]: 70.7%
viability, T/C [20]: 1.74%
viability, T/C (second compound 1 µM, first compound 0.949 µM): 1.59%
viability, T/C (second compound 1 µM, first compound 3 µM): 1.53%

Cc1nc(NC(=O)N2CCCC2C(N)=O)sc1-c1ccnc(C(C)(C)C(F)(F)F)c1 (stereo not given) + CCN1CCN(Cc2ccc(Nc3ncc(F)c(-c4cc(F)c5nc(C)n(C(C)C)c5c4)n3)nc2)CC1
pIC50 (second compound 0.01 µM): 6.27
pIC50 (second compound 0.0316 µM): 6.58
pIC50 (second compound 0.1 µM): 6.86
pIC50 (second compound 0.316 µM): 6.89
pIC50 (second compound 1 µM): 7.44
viability, T/C [21]: 80.1%
viability, T/C [22]: 87.8%
viability, T/C [23]: 65.7%
viability, T/C [24]: 29.2%
viability, T/C [25]: 16.2%
viability, T/C [26]: 3.69%
viability, T/C [27]: 75.8%
viability, T/C [28]: 69%
viability, T/C [29]: 46%
viability, T/C [30]: 21.4%
viability, T/C [31]: 10.5%
viability, T/C [32]: 3.09%
viability, T/C [33]: 57.4%
viability, T/C [34]: 53.5%
viability, T/C [35]: 42.3%
viability, T/C [36]: 21.4%
viability, T/C [37]: 11.4%
viability, T/C [38]: 2.17%
viability, T/C [39]: 55.4%
viability, T/C [40]: 49.4%
viability, T/C [41]: 44.9%
viability, T/C [42]: 19.4%
viability, T/C [43]: 11.5%
viability, T/C [44]: 2.65%
viability, T/C [45]: 49.7%
viability, T/C [46]: 48%
viability, T/C [47]: 37.6%
viability, T/C [48]: 25.1%
viability, T/C [49]: 14%
viability, T/C [50]: 6.29%

Cn1nccc1Nc1nccc(-c2ccn(C(CO)c3ccc(Cl)c(F)c3)c(=O)c2)n1 (stereo not given) + CCN1CCN(Cc2ccc(Nc3ncc(F)c(-c4cc(F)c5nc(C)n(C(C)C)c5c4)n3)nc2)CC1
pIC50 (second compound 0.01 µM): 5.94
pIC50 (second compound 0.0316 µM): 6.07
pIC50 (second compound 0.1 µM): 6.35
pIC50 (second compound 0.316 µM): 6.21
pIC50 (second compound 1 µM): 5.27
viability, T/C [21]: 87.8%
viability, T/C [22]: 83.6%
viability, T/C [23]: 67.6%
viability, T/C [24]: 55.9%
viability, T/C [25]: 31.9%
viability, T/C [26]: 30.3%
viability, T/C [27]: 78%
viability, T/C [28]: 68.1%
viability, T/C [29]: 61.2%
viability, T/C [30]: 52.7%
viability, T/C [31]: 31%
viability, T/C [32]: 34.2%
viability, T/C [33]: 70.7%
viability, T/C [34]: 59.5%
viability, T/C [35]: 53.7%
viability, T/C [36]: 47.2%
viability, T/C [37]: 27.1%
viability, T/C [38]: 32.3%
viability, T/C [39]: 68.7%
viability, T/C [40]: 59.5%
viability, T/C [41]: 53.3%
viability, T/C [42]: 50.5%
viability, T/C [43]: 36.8%
viability, T/C [44]: 31.9%
viability, T/C [45]: 74.9%
viability, T/C [46]: 82.7%
viability, T/C [47]: 63.6%
viability, T/C [48]: 62.7%
viability, T/C [49]: 57.8%
viability, T/C [50]: 43.2%
